From article PMC9330389, “Bambus[4,6]urils as Dual Scaffolds for Multivalent Iminosugar Presentation and Ion Transport: Access to Unprecedented Glycosidase-Directed Anion Caging Agents” (Molecules, 2022)
pKi: −log10 of the molar value.

Target: T1, Jack Bean α-mannosidase (Canavalia ensiformis, UniProt C0HJB3)
T1 construct: purchased Sigma Aldrich, St. Louis, MO, USA
T1 sequence (C0HJB3 1-981): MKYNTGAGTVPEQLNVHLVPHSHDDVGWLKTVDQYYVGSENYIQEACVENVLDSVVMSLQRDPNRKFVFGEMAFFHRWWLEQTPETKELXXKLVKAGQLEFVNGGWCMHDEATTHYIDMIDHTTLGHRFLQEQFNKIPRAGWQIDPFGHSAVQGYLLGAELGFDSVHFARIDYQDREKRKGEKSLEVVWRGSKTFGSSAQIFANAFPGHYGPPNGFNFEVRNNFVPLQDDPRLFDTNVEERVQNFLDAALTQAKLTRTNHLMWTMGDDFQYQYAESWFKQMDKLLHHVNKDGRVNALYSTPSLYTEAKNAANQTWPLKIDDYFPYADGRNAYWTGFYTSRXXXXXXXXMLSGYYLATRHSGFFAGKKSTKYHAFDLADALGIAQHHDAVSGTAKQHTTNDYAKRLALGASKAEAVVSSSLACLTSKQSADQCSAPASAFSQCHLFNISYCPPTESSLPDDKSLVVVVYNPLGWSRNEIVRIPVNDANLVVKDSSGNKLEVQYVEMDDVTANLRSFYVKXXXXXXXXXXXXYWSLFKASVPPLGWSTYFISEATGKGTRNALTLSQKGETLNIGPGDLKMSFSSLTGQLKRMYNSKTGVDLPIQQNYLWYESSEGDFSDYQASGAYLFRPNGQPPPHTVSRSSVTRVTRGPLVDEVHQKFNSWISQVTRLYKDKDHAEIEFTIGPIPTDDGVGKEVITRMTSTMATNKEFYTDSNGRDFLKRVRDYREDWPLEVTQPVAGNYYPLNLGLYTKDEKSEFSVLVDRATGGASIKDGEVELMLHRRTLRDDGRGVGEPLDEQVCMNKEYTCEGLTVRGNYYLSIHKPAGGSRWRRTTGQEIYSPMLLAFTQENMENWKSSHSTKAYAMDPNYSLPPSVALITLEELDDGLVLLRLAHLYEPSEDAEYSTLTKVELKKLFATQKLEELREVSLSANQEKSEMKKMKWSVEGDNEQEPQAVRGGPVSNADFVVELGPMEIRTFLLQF
Experiment: Inhibition assays on Jack-Bean α-mannosidase (p-nitrophenyl-α-D-mannopyranoside hydrolysis, Dixon and Lineweaver–Burk)
Assay type: biochemical
Conditions: for pKi: 0.2 M acetate buffer pH 5, 25-27 °C, for mixed inhibitors the first value of the cell (Ki); for rp/n (relative potency per inhitope): n = number of inhitope units; for Rp (relative potency): rp = Ki (monovalent reference)/Ki (neoglycocluster)
Experimental: p-nitrophenyl-α-D-mannopyranoside and α-mannosidase (EC 3.2.1.24, from Jack Bean) were purchased from Sigma Aldrich, St. Louis, MO, USA. Inhibition constants were determined spectrophotometrically by measuring the residual hydrolytic activities of the α-mannosidase against p-nitrophenyl-α-D-mannopyranoside in the presence and absence of an inhibitor. Each well was filled with a total volume of 100 µL, containing 0.2 M acetate buffer pH 5, inhibitor, substrate and enzyme. All kinetics were performed between 25 °C and 27 °C and started by enzyme addition. After 30–50 min of incubation, the reaction was quenched by addition of 100 µL of 1M Na2CO3. The absorbance of the resulting solution was determined at 405 nm. Ki values were determined in triplicate, using the Dixon and Lineweaver–Burk graphical methods within Microsoft Excel. Stock solutions of inhibitors were prepared with DMSO/buffer for final well DMSO content under 5%. The stability of the enzyme in the presence of the same concentrations of DMSO was controlled and enzyme activity was unaffected.

| Structure (SMILES) | Inhibition Mode | pKi | rp/n (relative potency per inhitope) | Rp (relative potency) |
| --- | --- | --- | --- | --- |
| O=C1N(Cc2cn(CCCCCCN3C[C@H](O)[C@@H](O)[C@H](O)[C@H]3CO)nn2)[C@H]2[C@@H](N1Cc1cn(CCCCCCN3C[C@H](O)[C@@H](O)[C@H](O)[C@H]3CO)nn1)N1CN3C(=O)N(CN4C(=O)N(CN5C(=O)N(CN2C1=O)[C@@H]1[C@H]5N(Cc2cn(CCCCCCN5C[C@H](O)[C@@H](O)[C@H](O)[C@H]5CO)nn2)C(=O)N1Cc1cn(CCCCCCN2C[C@H](O)[C@@H](O)[C@H](O)[C@H]2CO)nn1)[C@H]1[C@@H]4N(Cc2cn(CCCCCCN4C[C@H](O)[C@@H](O)[C@H](O)[C@H]4CO)nn2)C(=O)N1Cc1cn(CCCCCCN2C[C@H](O)[C@@H](O)[C@H](O)[C@H]2CO)nn1)[C@@H]1[C@H]3N(Cc2cn(CCCCCCN3C[C@H](O)[C@@H](O)[C@H](O)[C@H]3CO)nn2)C(=O)N1Cc1cn(CCCCCCN2C[C@H](O)[C@@H](O)[C@H](O)[C@H]2CO)nn1 [Compound 3, (DNJ-C6)8BU[4]] | competitive | 5.01 | 4 | 33 |
| O=C1N(Cc2cn(CCCCCCCCCN3C[C@H](O)[C@@H](O)[C@H](O)[C@H]3CO)nn2)C2C(N1Cc1cn(CCCCCCCCCN3C[C@H](O)[C@@H](O)[C@H](O)[C@H]3CO)nn1)N1CN3C(=O)N(CN4C(=O)N(CN5C(=O)N(CN2C1=O)C1C5N(Cc2cn(CCCCCCCCCN5C[C@H](O)[C@@H](O)[C@H](O)[C@H]5CO)nn2)C(=O)N1Cc1cn(CCCCCCCCCN2C[C@H](O)[C@@H](O)[C@H](O)[C@H]2CO)nn1)C1C4N(Cc2cn(CCCCCCCCCN4C[C@H](O)[C@@H](O)[C@H](O)[C@H]4CO)nn2)C(=O)N1Cc1cn(CCCCCCCCCN2C[C@H](O)[C@@H](O)[C@H](O)[C@H]2CO)nn1)C1C3N(Cc2cn(CCCCCCCCCN3C[C@H](O)[C@@H](O)[C@H](O)[C@H]3CO)nn2)C(=O)N1Cc1cn(CCCCCCCCCN2C[C@H](O)[C@@H](O)[C@H](O)[C@H]2CO)nn1 (stereo partly drawn) [Compound 4, (DNJ-C9)8BU[4]] | competitive | 6.15 | 33 | 265 |
| O=C1N(Cc2cn(CCCCCCCCCN3C[C@H](O)[C@@H](O)[C@H](O)[C@H]3CO)nn2)C2C(N1Cc1cn(CCCCCCCCCN3C[C@H](O)[C@@H](O)[C@H](O)[C@H]3CO)nn1)N1CN3C(=O)N(CN4C(=O)N(CN5C(=O)N(CN6C(=O)N(CN7C(=O)N(CN2C1=O)C1C7N(Cc2cn(CCCCCCCCCN7C[C@H](O)[C@@H](O)[C@H](O)[C@H]7CO)nn2)C(=O)N1Cc1cn(CCCCCCCCCN2C[C@H](O)[C@@H](O)[C@H](O)[C@H]2CO)nn1)C1C6N(Cc2cn(CCCCCCCCCN6C[C@H](O)[C@@H](O)[C@H](O)[C@H]6CO)nn2)C(=O)N1Cc1cn(CCCCCCCCCN2C[C@H](O)[C@@H](O)[C@H](O)[C@H]2CO)nn1)C1C5N(Cc2cn(CCCCCCCCCN5C[C@H](O)[C@@H](O)[C@H](O)[C@H]5CO)nn2)C(=O)N1Cc1cn(CCCCCCCCCN2C[C@H](O)[C@@H](O)[C@H](O)[C@H]2CO)nn1)C1C4N(Cc2cn(CCCCCCCCCN4C[C@H](O)[C@@H](O)[C@H](O)[C@H]4CO)nn2)C(=O)N1Cc1cn(CCCCCCCCCN2C[C@H](O)[C@@H](O)[C@H](O)[C@H]2CO)nn1)C1C3N(Cc2cn(CCCCCCCCCN3C[C@H](O)[C@@H](O)[C@H](O)[C@H]3CO)nn2)C(=O)N1Cc1cn(CCCCCCCCCN2C[C@H](O)[C@@H](O)[C@H](O)[C@H]2CO)nn1 (stereo partly drawn) [Compound 7, (DNJ-C9)12BU[6]] | competitive | 5.97 | 15 | 177 |
